Laboratory results taken from US8153424B2, “Method of in vitro differentiation of neural stem cells, motor neurons and dopamine neurons from primate embryonic stem cells” (Wisconsin Alumni Research Foundation, priority 2001, dated 2012).

What was measured:
Format in all cases: cell-based, human
[1] = tested on: voltage-activated sodium channels
[2] = tested on: voltage-gated sodium channels
[3] = tested on: early rosette cells (Pax6+/Sox1-); assay: RT-PCR of rostrocaudal genes in early rosette cells; conditions: RA 0.001-1.0 μM or FGF2 20 ng/ml for seven days; dose-dependent
Method: RT-PCR amplifications were performed from hESC-derived neuroectodermal cells at different stages and motor neuron differentiation cultures. The following primers were used: […] ID NO:11), [NT] ID NO:12), 318 bp; […] ID NO:13), [NT] ID NO:14), 290 bp; […] ID NO:15), [NT] ID NO:16), 340 bp; […] ID NO:17), [NT] ID NO:18), 429 bp; HoxBl, [NT] ID NO:19), [NT] ID NO:20), 218 bp; GAPDH, [NT] ID NO:1), [NT] ID NO:2), 450 bpi Olig-2, [NT] ID NO:21), [NT] ID NO:22), 315 bp; […] ID NO:23), [NT] ID NO:24), 337 bp; […] ID NO:25), [NT] ID NO:26), 473 bp; […] ID NO:27), [NT] ID NO:28), 459 bp; SHH, [NT] ID NO:29), [NT] ID NO:30), 339 bp; […] ID NO:31), [NT] ID NO:32), 335 bp.

[4] = tested on: hESC-derived EBs (H9 and H9.2 lines); assay: Formation of neural tube-like structures from embryoid bodies in the presence of FGF2; conditions: total 350 EBs from H9 and H9.2 lines, 3 separate experiments
Method: Differentiation cultures of ESCs. ESC cultures were incubated with dispase (Gibco BRL, 0.1 mg/ml) at 37° C. for 30 minutes, which removed ESC colonies intact. The ES cell colonies were pelleted, resuspended in ESC medium without FGF2, and cultured for four days in a 25-cm^2 tissue culture flask (Nunc) with a daily medium change. ESC colonies grew as floating EBs whereas any remaining feeder cells adhered to the flask. The feeder cells were removed by transferring the EBs into a new flask. EBs (˜50/flask) were then plated in a 25-cm^2 tissue culture flask (Nunc) in DMEM/F12, supplemented with insulin (25 μg/ml), transferrin (100 μg/ml), progesterone (20 nM), putrescine (60 μM), sodium selenite (30 nM), and heparin (2 μg/ml) in the presence of FGF2 (20 ng/ml) (Zhang et al., supra, 2000; Zhang et al., supra, 1999).

[5] = tested on: hESC-derived neural precursors; assay: BrdU incorporation by dissociated ES cell-derived neural precursors; conditions: FGF2 20 ng/ml, EGF 20 ng/ml, LIF 5 ng/ml; each alone
Method: Histochemical and immunohistochemical staining. To better visualize the rosette formations, cultures with rosettes were rinsed with PBS and fixed in 4% paraformaldehyde and 0.25% glutaraldehyde for 1 hour. The fixed cells were then processed for embedding in plastic resin as described (Zhang et al., supra, 1999). The cultured cells were then sectioned in 1-μm thickness and stained with toluidine blue. For immunostaining, the coverslip cultures were immunostained with the following primary antibodies detected by appropriate fluorescent secondary antibodies detailed elsewhere (Zhang et al., supra, 2000; Zhang et al., supra, 1999): anti-nestin (polyclonal, gift of Dr. R. McKay of NINDS, 1:1,000); anti-polysialylated neuronal cell adhesion molecule (PSA-NCAM, mouse IgM, gift of Dr. G. Rougon of University of Marseille, France, 1:200); anti-Musashi-1 (rat IgG, gift of Dr. H. Okano, University of Tokyo, Japan, 1:500); anti-GFAP (polyclonal, Dako, 1:1,000); anti-human GFAP (Sternberg monoclonals, 1:10,000); O4 (mouse IgM, hybridoma supernatant, 1:50); anti-tyrosine hydroxylase (TH, Pel Freez, 1:500). The remaining antibodies were from Sigma: anti-βIII-tubulin (mouse IgG, 1:500); anti-neurofilament (NF) 68 (mouse IgG, 1:1,000); anti-NF 200 (polyclonal, 1:5,000); anti-MAP2ab (mouse IgG, 1:250); anti-γ-aminobutyric acid (GABA, polyclonal, 1:10,000); anti-glutamate (mouse IgG, 1:10,000). For bromodeoxyuridine (BrdU) incorporation, 4 coverslip cultures in each group were incubated with 2 μM of BrdU for sixteen hours before the cultures were fixed in 4% paraformaldehyde, denatured with 1N HCl and processed for immunolabeling and cell counting (Zhang et al., supra, 2000; Zhang et al., supra, 1999).

Molecule	Effect on inward currents and action potentials [1]	Effect on inward currents [2]	Expression of Otx2 and Hox genes (Hox B1, B6, C5, C8) [3]	EBs forming neural tube-like structures [4] [%]	BrdU incorporation (stimulation of precursor cell proliferation) [5]
NC1=N[C@H](O)[C@H]2[C@H]3O[C@]4(O)O[C@@H]([C@@H](O)[C@@]2(N1)[C@@H]4O)[C@]3(O)CO [TTX, tetrodotoxin]	blocked	completely blocked	–	–	–
FGF2: growth factor FGF2 (Peprotech; R & D Systems)	–	–	decreased expression of Otx2 and increased expression of Hox genes	94	elevated
